A value given as a limit tells only on which side of the number the result lay.

The test deals with T1, human M4 receptor (Homo sapiens, UniProt P08173).
T1 construct: expressed in transfected cells; host or cells: CHO cells
T1 sequence (P08173 1-479): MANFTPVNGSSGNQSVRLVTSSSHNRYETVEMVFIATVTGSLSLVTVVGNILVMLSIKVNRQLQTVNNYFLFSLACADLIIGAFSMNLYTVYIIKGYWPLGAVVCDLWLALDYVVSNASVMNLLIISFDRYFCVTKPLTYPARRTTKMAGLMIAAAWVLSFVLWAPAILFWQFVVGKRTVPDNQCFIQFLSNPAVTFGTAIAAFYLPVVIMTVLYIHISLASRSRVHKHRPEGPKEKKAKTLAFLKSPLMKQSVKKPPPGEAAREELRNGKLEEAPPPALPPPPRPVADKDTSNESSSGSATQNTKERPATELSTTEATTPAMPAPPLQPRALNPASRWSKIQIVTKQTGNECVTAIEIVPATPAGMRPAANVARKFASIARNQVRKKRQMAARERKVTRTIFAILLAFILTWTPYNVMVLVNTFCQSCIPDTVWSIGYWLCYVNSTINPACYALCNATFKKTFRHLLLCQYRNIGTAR
The test can be described thus: Radioligand ([3H]N-methylscopolamine) binding assay, membranes from CHO cells expressing human M4 receptor. The note with it: Ki against human M4 receptor; membranes from CHO cells; tritiated N-methylscopolamine 1.5 nM; read-out: K. The essentials: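 Competition binding used CHO-cell membranes expressing human M4 with 1.5 nM [3H]N-methylscopolamine and twelve compound concentrations ([…]). Incubation was 90 minutes at 37 °C in 50 mM HEPES, 100 mM NaCl, 5 mM MgCl2, 1 mM EDTA, pH 7.4. Bound ligand was collected by filtration onto PEI-treated glass fibre for Ki.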
Consider `COc1ccc2nc(N3C[C@@H](C)N(C(=O)NC4CC5(C4)CN(Cc4ccccc4)C5)[C@@H](C)C3)cnc2c1` [Compound 215, (2R,6S)-N-{2-benzyl-2-azaspiro[3.3]heptan-6-yl}-4-(6-methoxyquinoxalin-2-yl)-2,6-dimethylpiperazine-1-carboxamide], for which the Ki fell in the range of 10 to 100 nM.
The value for `C[C@@H]1CN(c2cnc(C(F)(F)F)cn2)CCN1C(=O)NC1CC2(C1)CN(Cc1ccccc1)C2` [Compound 22, (2R)-N-{2-benzyl-2-azaspiro[3.3]heptan-6-yl}-2-methyl-4-[5-(trifluoromethyl)pyrazin-2-yl]piperazine-1-carboxamide] was 100 to 1000 nM; that for `C[C@@H]1CN(c2cnc(C(F)(F)F)cn2)[C@@H](C)CN1C(=O)NC1CC2(C1)CN(Cc1ccccc1)C2` [Compound 35, (2R,5S)-N-{2-benzyl-2-azaspiro[3.3]heptan-6-yl}-2,5-dimethyl-4-[5-(trifluoromethyl)pyrazin-2-yl]piperazine-1-carboxamide] was 10 to 100 nM.
Regarding `C[C@@H]1CN(c2ncc(C(F)(F)F)cn2)C[C@H](C)N1C(=O)OC1CC2(C1)CN(CC1CC1(C)C)C2` (stereo partly drawn) [Compound 153, 2-[(2,2-dimethylcyclopropyl)methyl]-2-azaspiro[3.3]heptan-6-yl (2R,6S)-2,6-dimethyl-4-[5-(trifluoromethyl)pyrimidin-2-yl]piperazine-1-carboxylate], the Ki was less than 10 nM.
The value for `C[C@H]1CN(C(=O)NC2CC3(C2)CN(Cc2ccccc2)C3)CCN1c1ncc(C(F)(F)F)cn1` [Compound 6, (3S)-N-{2-benzyl-2-azaspiro[3.3]heptan-6-yl}-3-methyl-4-[5-(trifluoromethyl)pyrimidin-2-yl]piperazine-1-carboxamide] was 10 to 100 nM.
On to `C[C@@H]1CN(c2ncc(C(F)(F)F)cn2)C[C@H](C)N1C(=O)NC1CC2(C1)CN(CC1=CCCCC1)C2` [Compound 313, (2R,6S)-N-[2-(cyclohex-1-en-1-ylmethyl)-2-azaspiro[3.3]heptan-6-yl]-2,6-dimethyl-4-[5-(trifluoromethyl)pyrimidin-2-yl]piperazine-1-carboxamide], for which the Ki lay within 10 to 100 nM.
`[2H]c1c([2H])c([2H])c(C([2H])([2H])N2CC3(CC(NC(=O)N4[C@H](C)CN(c5ncc(C(F)(F)F)cn5)C[C@@H]4C)C3)C2)c([2H])c1[2H]` [Compound 275, (2R,6S)-2,6-dimethyl-N-{2-[(^2H5)phenyl(^2H2)methyl]-2-azaspiro[3.3]heptan-6-yl}-4-[5-(trifluoromethyl)pyrimidin-2-yl]piperazine-1-carboxamide]: the Ki was less than 10 nM.
Take `CCc1cnc(N2C[C@@H](C)N(C(=O)OC3CC4(C3)CN(Cc3ccccc3)C4)[C@@H](C)C2)nc1` [Compound 497, 2-benzyl-2-azaspiro[3.3]heptan-6-yl (2R,6S)-4-(5-ethylpyrimidin-2-yl)-2,6-dimethylpiperazine-1-carboxylate]: the Ki is less than 10 nM.
As for `C[C@@H]1CN(c2ncc(OC(F)F)cn2)C[C@H](C)N1C(=O)OC1CC2(C1)CN(Cc1ccc(F)cc1)C2` [Compound 465, 2-[(4-fluorophenyl)methyl]-2-azaspiro[3.3]heptan-6-yl (2R,6S)-4-[5-(difluoromethoxy)pyrimidin-2-yl]-2,6-dimethylpiperazine-1-carboxylate], the Ki was less than 10 nM.
Consider `C[C@@H]1CN(c2ncc(C(F)(F)F)cn2)[C@H](C)CN1C(=O)OC1CC2(C1)CN(Cc1ccccc1)C2` [Compound 135, 2-benzyl-2-azaspiro[3.3]heptan-6-yl (2R,5R)-2,5-dimethyl-4-[5-(trifluoromethyl)pyrimidin-2-yl]piperazine-1-carboxylate], for which the Ki is 10 to 100 nM.
Regarding `CCOc1ccc(N2C[C@@H](C)N(C(=O)NC3CC4(C3)CN(Cc3ccccc3)C4)[C@@H](C)C2)cc1` [Compound 284, (2R,6S)-N-{2-benzyl-2-azaspiro[3.3]heptan-6-yl}-4-(4-ethoxyphenyl)-2,6-dimethylpiperazine-1-carboxamide], the Ki lay within 100 to 1000 nM.
Consider `C[C@@H]1CN(c2nc3ccc(C(F)(F)F)cc3s2)C[C@H](C)N1C(=O)OC1CC2(C1)CN(Cc1ccncc1)C2` [Compound 416, 2-(pyridin-4-ylmethyl)-2-azaspiro[3.3]heptan-6-yl (2R,6)S-2,6-dimethyl-4-[6-(trifluoromethyl)-1,3-benzothiazol-2-yl]piperazine-1-carboxylate], for which the Ki was less than 10 nM.
The value for `C[C@@H]1CN(c2cnc3cc(C(F)(F)F)ccc3n2)C[C@H](C)N1C(=O)OC1CC2(C1)CN(Cc1ccccc1)C2` [Compound 378, 2-benzyl-2-azaspiro[3.3]heptan-6-yl (2R,6S)-2,6-dimethyl-4-[6-(trifluoromethyl)quinoxalin-2-yl]piperazine-1-carboxylate] was less than 10 nM.
The value for `C[C@@H]1CN(c2nc3ccc(F)cc3s2)[C@@H](C)CN1C(=O)NC1CC2(C1)CN(Cc1ccccc1)C2` [Compound 233, (2R,5S)-N-{2-benzyl-2-azaspiro[3.3]heptan-6-yl}-4-(6-fluoro-1,3-benzothiazol-2-yl)-2,5-dimethylpiperazine-1-carboxamide] was less than 10 nM; that for `C[C@@H]1CN(c2ncc(C(F)(F)F)cn2)C[C@H](C)N1C(=O)OC1CC2(C1)CN(CCC(C)(C)C)C2` [Compound 149, 2-(3,3-dimethylbutyl)-2-azaspiro[3.3]heptan-6-yl (2R,6S)-2,6-dimethyl-4-[5-(trifluoromethyl)pyrimidin-2-yl]piperaizne-1-carboxylate] was 100 to 1000 nM; that for `C[C@H]1CN(C(=O)OC2CC3(C2)CN(Cc2ccccc2)C3)CCN1c1ncc(C#N)cn1` [Compound 119, 2-benzyl-2-azaspiro[3.3]heptan-6-yl (3S)-4-(5-cyanopyrimidin-2-yl)-3-methylpiperazine-1-carboxylate] was 100 to 1000 nM.
Take `C[C@@H]1CN(c2ncc(C(F)(F)F)c(N)n2)C[C@H](C)N1C(=O)OC1CC2(C1)CN(Cc1ccc(F)cc1)C2` [Compound 466, 2-[(4-fluorophenyl)methyl]-2-azaspiro[3.3]heptan-6-yl (2R,6S)-4-[4-amino-5 (trifluoromethyl)pyrimidin-2-yl]-2,6-dimethylpiperazine-1-carboxylate]: the Ki is less than 10 nM.
For `C[C@@H]1CN(c2cncc(C(F)(F)F)n2)[C@@H](C)CN1C(=O)OC1CC2(C1)CN(Cc1ccccc1)C2` [Compound 194, 2-benzyl-2-azaspiro[3.3]heptan-6-yl (2R,5S)-2,5-dimethyl-4-[6-(trifluoromethyl)pyrazin-2-yl]piperazine-1-carboxylate], the Ki was 100 to 1000 nM.
The value for `CSc1nc(N2C[C@@H](C)N(C(=O)OC3CC4(C3)CN(Cc3ccccc3)C4)[C@@H](C)C2)ncc1Br` [Compound 169, 2-benzyl-2-azaspiro[3.3]heptan-6-yl (2R,6S)-4-[5-bromo-4-(methylsulfanyl)pyrimidin-2-yl]-2,6-dimethylpiperazine-1-carboxylate] was 10 to 100 nM; that for `C[C@@H]1CN(c2cnc(C(F)(F)F)cn2)[C@@H](C)CN1C(=O)OC1CC2(C1)CN(Cc1ccc(Cl)cc1)C2` [Compound 480, 2-[(4-chlorophenyl)methyl]-2-azaspiro[3.3]heptan-6-yl (2R,5S)-2,5-dimethyl-4-[5-(trifluoromethyl)pyrazin-2-yl]piperazine-1-carboxylate] was 10 to 100 nM.

(Values after patent publication US20230129359A1, “MUSCARINIC RECEPTOR 4 ANTAGONISTS AND METHODS OF USE” (Neurocrine Biosciences, Inc., priority 2020, published 2023).)
